Measurements as given in PMC6151407 (Molecules : A Journal of Synthetic Chemistry and Natural …, 2017).
In brackets after ≈: the same amount, converted by molar mass. Where two headings read alike, the source gives them in different places.

What was measured:
[1] = target: T1, electric eel AChE (EC3.1.1.7) (Electrophorus electricus, UniProt O42275); assay: biochemical
T1 construct: purchased Sigma-Aldrich Chemical Company (St. Louis, MO, USA)
Protocol: (§1) n-Hexane (Hx), ethyl acetate (EA), n-butanol (BuOH), methanol (MeOH), ethanol (EtOH), and distilled water were used for extraction, fractionation, and open column chromatography. Open column chromatography used Sephadex LH-20 (25–100 μm; Pharmacia, Stockholm, Sweden), MCI CHP 20P (Supelco, St. Louis, MO, USA), and ODS gel (400–500 mesh; Waters, Milford, MA, USA). Dimethyl sulfoxide-d6 (DMSO-d6) and chloroform-d (CDCl3) were used for the NMR solution. MS was performed with ultra-high performance liquid chromatography and high-resolution mass spectrometry (UHPLC-HRMS) coupled with electrospray ionization hybrid linear trap-quadruple-Orbitrap MS (ESI/LTQ-Orbitrap) on an Ultimate 3000 rapid separation liquid chromatography (RSLC) system (Thermo, Darmstadt, Germany). ^1H- and ^13C-nuclear magnetic resonance (NMR) spectra were collected at 600 and 150 MHz, respectively, with a JEOL spectrometer. Chemical shifts are expressed as parts per million (ppm) on the δ scale, and coupling constants (J) are shown in Hertz. HPLC was conducted with Empower Pro 2.0 software (Waters, Milford, MA, USA), and determination was performed with a Waters 2695 system pump and Waters 996 Photodiode array detector (Waters, Milford, MA, USA). The separation column was a Waters Sunfire™ C18 column (4.6 × 250 mm, 5 μm). HPLC-grade solvents, such as acetonitrile (ACN), methanol (MeOH), and distilled water (H2O), were purchased from J. T. Baker® (Phillipsburg, PA, USA). HPLC-grade phosphoric acid and dimethyl sulfoxide (DMSO) were obtained from DEAJUNG Chemical (Siheung, Gyeonggi, Korea). Reagents and solvents including electric eel AChE (EC3.1.1.7), horse serum BChE (EC3.1.1.8), acetylthiocholine iodide (ACh), butyrylthiocholine chloride (BCh), 5,5′-dithiobis [2-nitrobenzoic acid] (DTNB), berberine, bovine serum albumin, aminoguanidine (AG), glucose, and fructose were purchased from Sigma-Aldrich Chemical Company (St. Louis, MO, USA). The BACE1 FRET assay kit (β-secretase) was purchased from PanVera Co. (Madison, WI, USA).
(§2) ChE activity was detected by AChE- or BChE-mediated hydrolysis of […] for 15 min to form thiocholine and the yellow 5-thio-2-nitrobenzoate anion. The result was quantified by measuring the absorbance 412 nm. The assay mixture contained 0.1 M potassium phosphate buffer (pH 7.8), 0.3 U/mL AChE or BChE, 0.5 mM DTNB, 0.6 mM ACh or BCh, and the sample for a total volume of 0.2 mL. All tested samples were dissolved in 10% DMSO at five different final concentrations (10–500 µg/mL for extracts and fractions or 10–500 µM for isolated constituents). The reaction was performed in a 96-well plate. […] Inhibitory activity was calculated with the following formula: (Ac − As/Ac) × 100, where Ac is the change in absorbance for the control after 15 min and As is the change in absorbance for the sample after 15 min.

[2] = target: T2, horse serum BChE (EC3.1.1.8) (Equus caballus, UniProt P81908); assay: biochemical
T2 construct: horse serum BChE (EC3.1.1.8); purchased Sigma-Aldrich Chemical Company (St. Louis, MO, USA); host or cells: horse serum
T2 sequence (P81908 whole entry): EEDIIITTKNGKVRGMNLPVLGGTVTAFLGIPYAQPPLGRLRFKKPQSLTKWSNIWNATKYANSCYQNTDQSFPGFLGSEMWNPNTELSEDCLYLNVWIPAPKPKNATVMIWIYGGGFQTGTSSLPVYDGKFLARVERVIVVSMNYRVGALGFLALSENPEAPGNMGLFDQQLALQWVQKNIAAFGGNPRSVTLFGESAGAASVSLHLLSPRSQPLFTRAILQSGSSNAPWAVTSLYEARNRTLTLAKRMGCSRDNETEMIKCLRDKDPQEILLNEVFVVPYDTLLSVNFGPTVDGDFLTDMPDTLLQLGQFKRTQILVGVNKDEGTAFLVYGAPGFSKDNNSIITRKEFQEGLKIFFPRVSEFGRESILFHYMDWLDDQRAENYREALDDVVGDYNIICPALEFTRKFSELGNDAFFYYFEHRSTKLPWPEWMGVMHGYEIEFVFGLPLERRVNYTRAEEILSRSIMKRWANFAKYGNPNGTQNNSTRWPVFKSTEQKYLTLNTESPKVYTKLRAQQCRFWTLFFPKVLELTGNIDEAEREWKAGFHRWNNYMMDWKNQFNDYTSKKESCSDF
Protocol: as §1, with “(DTNB), berberine, bovine serum albumin, aminoguanidine (AG), glucose, and fructose were purchased from Sigma-Aldrich Chemical Company (St. Louis, MO, USA).” left out
as §2

[3] = tested on: AGE formation; assay: Inhibition of AGE formation (bovine serum albumin with fructose and glucose, fluorescence); assay type: biochemical; settings: 60 °C for 2 days, pH 7.4, mean ± S.D. (n = 3); for IC50: isolated compounds, read-out: IC50 AGEs Formation
Protocol: Inhibition of AGE formation was measured with a spectrophotometric method developed previously. All tested samples were dissolved in 10% DMSO at five different final concentrations (10–500 µg/mL for extracts and fractions or 10–500 µM for isolated constituents). The assay mixture contained bovine serum albumin (10 mg/mL), 50 mM phosphate buffer (pH 7.4) with 0.02% sodium azide, and 0.4 M fructose and glucose. The reaction was incubated at 60 °C for 2 days. After incubating, fluorescence was measured at an excitation wavelength of 350 nm and emission of 450 nm in a black 96-well plate. Aminoguanidine (AG), a typical inhibitor of AGE formation, was used as a positive control. The inhibitory activity was calculated with the following formula: (Ac − As/Ac) × 100, where Ac is the fluorescence of the control, and As is the fluorescence of the sample.

[4] = target: BACE1 (Homo sapiens, UniProt P56817); assay: BACE1 FRET assay kit (β-secretase) inhibition; assay type: biochemical; settings: isolated compounds; 60 min, room temperature, pH 4.5; mean ± S.D. (n = 3)
BACE1, sequence (P56817 46-501): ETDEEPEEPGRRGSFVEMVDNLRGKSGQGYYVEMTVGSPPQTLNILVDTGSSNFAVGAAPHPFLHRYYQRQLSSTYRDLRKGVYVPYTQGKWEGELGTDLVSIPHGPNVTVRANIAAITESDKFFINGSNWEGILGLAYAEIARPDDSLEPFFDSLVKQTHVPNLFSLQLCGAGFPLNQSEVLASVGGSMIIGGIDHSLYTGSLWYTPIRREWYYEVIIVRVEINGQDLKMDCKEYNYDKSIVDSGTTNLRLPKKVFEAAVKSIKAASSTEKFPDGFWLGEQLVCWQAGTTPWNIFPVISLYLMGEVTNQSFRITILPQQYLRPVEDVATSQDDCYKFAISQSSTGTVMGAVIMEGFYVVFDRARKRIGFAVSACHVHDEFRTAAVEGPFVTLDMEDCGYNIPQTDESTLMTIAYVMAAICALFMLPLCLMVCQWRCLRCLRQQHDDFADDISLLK
Protocol: as §1, with “(DTNB), berberine, bovine serum albumin, aminoguanidine (AG), glucose, and fructose were purchased from Sigma-Aldrich Chemical Company (St. Louis, MO, USA).” left out
BACE1 inhibition was measured with a commercially available spectrophotometric method according to the manufacturer’s recommended protocol. The assay mixture contained 50 mM sodium acetate buffer (pH 4.5), 1.0 U/mL BACE1, substrate (750 nM Rh-[…]-Quencher in 50 mM ammonium bicarbonate), and sample. […] The reaction was incubated for 60 min at room temperature in the dark. BACE1 activity was determined by measuring the proteolysis of two fluorophores (Rh-[…]-Quencher) to form a fluorescent donor (Rh-EVNL) with an excitation of 545 nm and emission of 585 nm in a black 96-well plate. […] Inhibition was calculated with the following formula: (Ac − As/Ac) × 100, where Ac is the change in fluorescence for the control after 60 min, and As is the change in fluorescence for the sample after 60 min.

[5] = isolated compounds, 15 min, pH 7.8, mean ± S.D. (n = 3), read-out: IC50 AChE (converted)
[6] = isolated compounds, 15 min, pH 7.8, mean ± S.D. (n = 3), read-out: IC50 BChE

T1 sequence (O42275 24-633): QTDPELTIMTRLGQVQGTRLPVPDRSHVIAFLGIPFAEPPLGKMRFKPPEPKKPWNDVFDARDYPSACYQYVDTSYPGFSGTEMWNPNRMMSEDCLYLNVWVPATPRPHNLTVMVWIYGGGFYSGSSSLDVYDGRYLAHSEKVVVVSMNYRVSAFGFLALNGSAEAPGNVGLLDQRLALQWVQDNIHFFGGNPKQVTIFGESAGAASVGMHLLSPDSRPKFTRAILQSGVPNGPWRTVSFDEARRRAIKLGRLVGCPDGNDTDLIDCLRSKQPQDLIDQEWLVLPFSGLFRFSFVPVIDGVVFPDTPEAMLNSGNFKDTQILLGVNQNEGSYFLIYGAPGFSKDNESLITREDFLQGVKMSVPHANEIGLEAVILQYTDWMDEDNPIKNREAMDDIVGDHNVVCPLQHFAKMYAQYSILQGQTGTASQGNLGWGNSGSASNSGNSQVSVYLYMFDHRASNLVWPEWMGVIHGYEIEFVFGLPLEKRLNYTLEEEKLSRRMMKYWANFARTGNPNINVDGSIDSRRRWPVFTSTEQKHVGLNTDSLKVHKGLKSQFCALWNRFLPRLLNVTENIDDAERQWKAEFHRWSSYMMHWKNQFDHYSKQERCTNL

SMILES	IC50 ([1]; extracts and fractions, 15 min, pH 7.8, mean ± S.D. (n = 3), read-out: IC50 AChE (converted))	IC50 [1, 5]	IC50 [2, 6]	IC50 [3]	IC50 [4]	IC50 ([2]; IC50 BChE)	IC50 ([1]; IC50 AChE)	IC50 AGE Formation ([3]; extracts and fractions)
COc1ccc2cc3[n+](cc2c1OC)CCc1cc2c(cc1-3)OCO2 [Berberine, berberine, reference compound]	0.416 µM	0.42 ± 0.03 µM	–	–	–	–	–	–
COc1c(O)cc2c(c1OC)C(=O)c1ccccc1C2=O [Compound 2, 1,2-dimethoxy-3-hydroxy anthraquinone]	–	147 ± 13.3 µM	442 ± 10.6 µM	438 ± 23.9 µM	115 ± 21.6 µM	–	–	–
O=C1c2ccccc2C(=O)c2cc(CO)c(O)cc21 [Compound 5, 2-hydroxymethyl-3-hydroxy anthraquinone]	–	19.1 ± 3.58 µM	459 ± 13.1 µM	355 ± 12 µM	> 200 µM	–	–	–
CC[C@H](CC[C@@H](C)[C@H]1CC[C@H]2[C@@H]3CC=C4C[C@@H](O)CC[C@]4(C)[C@H]3CC[C@]12C)C(C)C [Compound 10, β-sitosterol]	–	–	–	–	–	> 500 µM	> 500 µM	–
Cc1c(O)cc2c(c1O)C(=O)c1ccccc1C2=O [Compound 8, rubiadin]	–	44.3 ± 12.2 µM	> 500 µM	522 ± 10.1 µM	19.8 ± 3.05 µM	–	–	–
COc1cc2ccc(=O)oc2cc1O [Compound 9, scopoletin]	–	236 ± 21.2 µM	50.4 ± 1.61 µM	5.43 ± 0.11 µM	> 200 µM	–	–	–
COc1c(O)ccc2c1C(=O)c1ccccc1C2=O [Compound 1, alizarin-1-methyl ether]	–	175 ± 10.7 µM	450 ± 8.82 µM	292.4 ± 2.28 µM	192 ± 7.32 µM	–	–	–
COc1cc2c(cc1CO)C(=O)c1ccccc1C2=O [Compound 4, 2-hydroxymethyl-3-methoxy anthraquinone]	–	27 ± 1.49 µM	> 500 µM	530 ± 15.5 µM	> 200 µM	–	–	–
O=C1c2ccccc2C(=O)c2c(O)cc(CO)cc21 [Compound 7, 1-hydroxy-3-hydroxymethyl anthraquinone]	–	96.4 ± 17.2 µM	> 500 µM	–	–	–	–	–
COc1c(C)c(O)cc2c1C(=O)c1ccccc1C2=O [Compound 6, rubiadin-1-methyl ether]	–	87.2 ± 6.56 µM	> 500 µM	> 1000 µM	25.9 ± 2.11 µM	–	–	–
COc1ccc2c(c1)C(=O)c1ccccc1C2=O [Compound 3, 2-methoxy anthraquinone]	–	187 ± 20.1 µM	230 ± 5.97 µM	88.4 ± 3.28 µM	9.29 ± 1.92 µM	–	–	–
N=C(N)NN [AG, aminoguanidine, reference compound]	–	–	–	762 ± 69.1 µM	–	–	–	104.87 ± 6.94 µg/mL (≈ 1420 µM)
